# Measured values as given in patent publication US20070004735A1, “Method for inhibiting the replication of herpes viruses” (priority 2003, published 2007).
# Key:
# [1] = test system: Human cytomegalovirus (HCMV); assay: Anti-HCMV cytopathogenicity test; assay type: cell-based; details: for IC50: Human betaherpesvirus 5, 144 h, NHDF cells, 6 days, cytopathogenic effect, read-out: IC50, antiviral activity in vitro; for SI (selectivity index): antiviral activity in vitro
# Procedure: Human cytomegalovirus (HCMV), DavisSmith (ATCC VR807) or AD169 (ATCC VR538) strain, is grown in vitro on human embryonic prepuce fibroblasts (NHDF cells). After the NHDF cells have been infected with a multiplicity of infection (M.O.I.) of 0.01, the virus-infected cells are harvested 5-10 days later and stored in the presence of minimal essential medium (MEM), 10% fetal calf serum (FCS) with 10% DMSO at −80° C. A cell-free stock is produced by removing only the cell culture supernatant and immediately freezing at −80° C. After serial ten-fold dilutions of the virus-infected cells or of the cell culture supernatant of the virus-infected cells (cell-free virus), the titer is determined on 24-well plates of confluent NHDF cells after vital staining with neutral red.
# (§1) The test compounds are employed as 50 millimolar (mM) solutions in dimethyl sulfoxide (DMSO). Ganciclovir®, Foscarnet® and Cidofovir® are used as reference compounds. After addition of in each case 2 μl of the 50, 5, 0.5 and 0.05 mM DMSO stock solutions to 98 μl portions of cell culture medium in row 2 A-H for duplicate determinations, 1:2 dilutions are carried out with 50 μl portions of medium up to row 11 of the 96-well plate. The wells in rows 1 and 12 each contain 50 μl of medium. 150 μl of a suspension of 1×10^4 cells (human prepuce fibroblasts [NHDF]) are then pipetted into each of the wells (row 1=cell control) and, in rows 2-12, a mixture of HCMV-infected and uninfected NHDF cells (M.O.I.=0.001-0.002), i.e. 1-2 infected cells per 1000 uninfected cells. Row 12 (without substance) serves as virus control. The final test concentrations are 250-0.0005 μM. The plates are incubated at 37° C./5% CO2 for 6 days, i.e. until all the cells are infected in the virus controls (100% cytopathogenic effect [CPE]). The wells are then fixed and stained by adding a mixture of formalin and Giemsa's dye (30 minutes), washed with double-distilled water and dried in a drying oven at 50° C. The plates are then assessed visually using an overhead microscope (plaque multiplier from Technomara).
# [2] = test system: wild-type HCMV AD169; assay: Susceptibility (IC50) of HCMV AD169 wild-type; assay type: cell-based, Human cytomegalovirus; details: Human betaherpesvirus 5, NHDF cells, read-out: IC 50, Wild-type
# Procedure: as §1
# (§2) For this purpose, NHDF cells are seeded in tissue culture vessels. 5×10^3 cells per well are seeded in 96-well plates and infected with cell-free HCMV AD169 with an moi of 0.03. The infections are cultivated under substance pressure which corresponds to 10 times the IC50 of the substance. Preferably, 30-100 96-well plates inoculated as described are made up. […] Finally, viral stocks are produced as described above and frozen. Serial ten-fold dilution of the virus-infected cells or of the cell culture supernatant of the virus-infected cells is followed by determination of the titer on 24-well plates of confluent NHDF cells after vital staining with neutral red. Finally, the susceptibility to various substances (IC50 determination) is determined as described above.
# (§3) The HCMVAD169 mutants selected as described above are grown in vitro on human embryonic prepuce fibroblasts (NHDF cells) under substance pressure (10×IC50 HCMVAD169). After infection of the NHDF cells with a multiplicity of infection (M.O.I) of 0.01, the virus-infected cells are harvested 5-10 days later, and the total DNA is isolated from these cells with the aid of established standard methods (e.g. phenol extraction and ethanol precipitation). Qiagen Sequencing Services (Qiagen, Hilden) determined, after amplification of the viral UL86 gene by PCR, the DNA sequence, which was then transcribed into protein sequence. Compared with the initial strain HCMV AD169, the differences shown in table 2 were detectable in the protein sequence of the major capsid protein (UL86) in the resistant viruses. The IC50 values [μM] of various substances on these mutants compared with the initial strain are likewise indicated. (n.d.=not measured). […] Depending on the nature of the substance, certain mutations lead to various extents of resistance.
# [3] = test system: HCMV AD169 clone with mutation in UL86 R435C; assay: Susceptibility (IC50) of resistant HCMV AD169 clone R435C; assay type: cell-based, Human cytomegalovirus; details: Human betaherpesvirus 5, read-out: IC 50, R435C
# Procedure: as §1, §2, §3
# [4] = test system: HCMV AD169 clone with mutation in UL86 D441N; assay: Susceptibility (IC50) of resistant HCMV AD169 clone D441N; assay type: cell-based, Human cytomegalovirus; details: Human betaherpesvirus 5, read-out: IC 50, D441N
# Procedure: as §1, §2, §3
# [5] = test system: HCMV AD169 clone with mutation in UL86 D563N; assay: Susceptibility (IC50) of resistant HCMV AD169 clone D563N; assay type: cell-based, Human cytomegalovirus; details: Human betaherpesvirus 5, read-out: IC 50, D563N
# Procedure: as §1, §2, §3
# [6] = test system: HCMV AD169 clone with mutation in UL86 P586T; assay: Susceptibility (IC50) of resistant HCMV AD169 clone P586T; assay type: cell-based, Human cytomegalovirus; details: Human betaherpesvirus 5, read-out: IC 50, P586T
# Procedure: as §1, §2, §3
# [7] = test system: HCMV AD169 clone with mutation in UL86 A1226T; assay: Susceptibility (IC50) of resistant HCMV AD169 clone A1226T; assay type: cell-based, Human cytomegalovirus; details: Human betaherpesvirus 5, read-out: IC 50, A1226T
# Procedure: as §1, §2, §3
# [8] = test system: HCMV AD169 clone with mutation in UL86 K1338N; assay: Susceptibility (IC50) of resistant HCMV AD169 clone K1338N; assay type: cell-based, Human cytomegalovirus; details: Human betaherpesvirus 5, read-out: IC 50, K1338N
# Procedure: as §1, §2, §3
Compound,IC50 [1],SI (selectivity index) [1],IC50 [2],IC50 [3],IC50 [4],IC50 [5],IC50 [6],IC50 [7],IC50 [8],melting point
"CC1(C)CC(=O)NN=C1c1cccc(NC(=O)Nc2ccc(F)cc2F)c1 [Example 1, N-(2,4-Difluorophenyl)-N′-[3-(4,4-dimethyl-6-oxo-1,4,5,6-tetrahydro-3-pyridazinyl)phenyl]urea]",1000 nM,125,1000 nM,1500 nM,20000 nM,> 125000 nM,4000 nM,> 125000 nM,> 125000 nM,213 °C
"CC1(C)CC(=O)NN=C1c1cc(NC(=O)Nc2cc(F)ccc2F)ccc1O [Example 2, N-(2,5-Difluorophenyl)-N′-[3-(4,4-dimethyl-6-oxo-1,4,5,6-tetrahydro-3-pyridazinyl)-4-hydroxyphenyl]urea]",400 nM,325,400 nM,500 nM,1500 nM,6000 nM,2000 nM,> 125000 nM,> 125000 nM,–
"CCCCC(=O)Nc1ccc(NC(=O)Nc2ccc(F)c(Cl)c2)cc1 [Example 4, N-[4-({[(3-Chloro-4-fluorophenyl)amino]carbonyl}amino)phenyl]pentanamide]",80 nM,750,80 nM,> 60000 nM,500 nM,1000 nM,500 nM,800 nM,> 60000 nM,–
